The subject of the test is gastric acid secretion. The test can be described thus: Inhibition of gastric acid secretion in Shay rats (Shay's method, pylorus ligation). It counts as in vivo, Male Wistar rats. As to conditions: Rattus norvegicus, administered intraduodenally; for ED50: 2 h; for inhibition in vivo at 40 mg/kg: intraduodenal, 2 h after pylorus ligation, read-out: Percentage inhibition of gastric acid secretion. An excerpt:
Shay's method [H. Shay; S. A. Komarov; S. S. Fels; D. Merange: M. Grvenstein; H. Siplet: Gastroenterology, 5, 43 (1945)--F. E. Visscber; P. H. Seay: A. P. Taxelaar; W. Veldkamp; M. J. Vander Brook: J. Pharmac. Exp. Ther., 110, 188 (1954)--"Animal Experiments in Pharmacological Analysis", F. R. Domer: C. C. Thomas, published by Springfield, Ill., U.S.A., 1970, p. 140].
Male Wistar rats weighing 200 to 250 grams are used in this test; they are fasted from the day preceding the day of the test, with free access to water. Groups containing a minimum of 4 animals each are used.
The rats are anesthetized with ethyl ether, a laparotomy is performed on them and their pylorus is ligated; the abdominal incision is then sewn up. The administration of the products, with the vehicle for the control group, is effected intraduodenally (i.d.) before the abdominal incision is sewn up. The dose administered in the first test is 40 mg/kg and the 50% effective dose (ED50), administered intraduodenally, is also determined in a second test. The vehicle used is gum arabic at a concentration of 5% w/v in double-distilled water.
Two hours after ligation of the pylorus, the rats are sacrificed by prolonged anesthesia with ethyl ether and the volume of gastric juice is measured; the total acidity is determined by means of a pH meter equipped with an automatic burette. For each product and each dose tested, the percentage inhibition of gastric acid secretion is determined relative to the control group.

As usually defined, the ED50 is the dose that gives a 50% effect, or the effect in half of the subjects. A higher ED50 goes with a need for a large dose.

Take `CCNS(=O)(=O)c1nc2cc(C(=O)c3ccccc3)ccc2[nH]1` [Example 1, 5-benzoyl-N-ethyl-1H-benzimidazole-2-sulfonamide]: the ED50 is 22.4 mg/kg and the inhibition in vivo at 40 mg/kg turned out to be 78.7%.
The matching figures for `O=S(=O)(Nc1ccccn1)c1nc2ccccc2[nH]1` [Example 5, N-(2-Pyridyl)-1H-benzimidazole-2-sulfonamide]: 10.8 mg/kg and 96.4%.
The matching figures for `COc1ccc(CCNS(=O)(=O)c2nc3ccccc3[nH]2)cc1OC` [Example 11, N-[2-(3,4-Dimethoxyphenylethyl)]-1H-benzimidazole-2-sulfonamide]: 42 mg/kg and 48.8%.
On to `CCCCNS(=O)(=O)c1nc2ccccc2[nH]1` [Example 14, N-Butyl-1H-benzimidazole-2-sulfonamide], for which it took a dose of 30.6 mg/kg to reach the 50% effect level (ED50) and the inhibition in vivo at 40 mg/kg is 61.4%.
For `CCNS(=O)(=O)c1nc2cc(C(F)(F)F)ccc2[nH]1` [Example 26, N-Ethyl-5-trifluoromethyl-1H-benzimidazole-2-sulfonamide], in that order: 38.5 mg/kg and 53%.
For `O=S(=O)(c1nc2ccccc2[nH]1)N1CCCCC1CO` (stereo not shown) [Example 28, 2-(Sulfonyl-2-hydroxymethyl-1-piperidinyl)-1H-benzimidazole], in that order: 38.5 mg/kg and 51.4%.
As to `COc1ccc(CNS(=O)(=O)c2nc3ccccc3[nH]2)cc1` [Example 29, N-(4-Methoxybenzyl)-1H-benzimidazole-2-sulfonamide], the median effective dose (ED50) was 37.9 mg/kg and the inhibition in vivo at 40 mg/kg was 54.2%.
For `O=[N+]([O-])c1ccc2[nH]c(S(=O)(=O)NCCN3CCOCC3)nc2c1` [Example 36, N-[2-(4-Morpholinoethyl)]-5-nitro-1H-benzimidazole-2-sulfonamide], the 50% effective dose (ED50) came out at 65.6 mg/kg and the inhibition in vivo at 40 mg/kg was found to be 40%.
Consider `CCNS(=O)(=O)c1nc2ccccc2n1CC` [Example 62, 1,N-diethyl-1H-benzimidazole-2-sulfonamide], for which the 50% effective dose (ED50) worked out at 31 mg/kg and the inhibition in vivo at 40 mg/kg was 52.4%.
For `CCN(CC)S(=O)(=O)c1nc2ccccc2n1CC` [Example 63, 1,N,N-Triethyl-1H-benzimidazole-2-sulfonamide], in that order: 49.2 mg/kg and 52%.
For `CCN(CC)CCCC(C)NS(=O)(=O)c1nc2cc(Cl)ccc2n1CC` (stereo not shown) [Example 68, 5-Chloro-N-(4-diethylamino-1-methylbutyl)-1-ethyl-1H-benzimidazole-2-sulfonamide], in that order: 39.7 mg/kg and 53.8%.
The matching figures for `CCN(CC)CCCC(C)NS(=O)(=O)c1nc2ccc(Cl)cc2n1CC` (stereo not shown) [Example 69, 6-Chloro-N-(4-diethylamino-1-methylbutyl)-1-ethyl-1H-benzimidazole-2-sulfonamide]: 39.2 mg/kg and 54.3%.
`CCN(CC)CCCC(C)N(CC)S(=O)(=O)c1nc2cc(Cl)ccc2n1CC` (stereo not shown) [Example 73, 5-Chloro-1,N-diethyl-N-(4-diethylamino-1-methylbutyl)-1H-benzimidazole-2-sulfonamide]: the median effective dose (ED50) turned out to be 18.5 mg/kg and the inhibition in vivo at 40 mg/kg stood at 77.5%.
For `CCN(CC)CCCC(C)N(CC)S(=O)(=O)c1nc2ccc(Cl)cc2n1CC` (stereo not shown) [Example 74, 6-Chloro-1,N-diethyl-N-(4-diethylamino-1-methylbutyl)-1H-benzimidazole-2-sulfonamide], in that order: 17.9 mg/kg and 76.4%.
The matching figures for `CCN1CCCn2c(nc3ccccc32)S1(=O)=O` [Example 90, 3,4,5-Trihydro-2H-2-ethyl-[1,2,6]-thiadiazepino[6,7-a]-benzimidazole 1,1-dioxide]: 64 mg/kg and 51.4%.
For the molecule `CCCCN1CCn2c(nc3ccccc32)S1(=O)=O` [Example 100, 2H-2-Butyl-3,4-Dihydro-[1,2,5]-thiadiazino[5,6-a]-benzimidazole 1,1-dioxide], the 50% effective dose (ED50) is 37.6 mg/kg and the inhibition in vivo at 40 mg/kg came out at 51.8%.
For `CCN(CC)CCCC(C)N1CCn2c(nc3cc(Cl)ccc32)S1(=O)=O` (stereo not shown) [Example 102, 8-Chloro-3,4-dihydro-2H-2-(4-diethylamino-1-methylbutyl)-[1,2,5]-thiadiazino[5,6-a]benzimidazole 1,1-dioxide], the ED50 stood at 14.1 mg/kg and the inhibition in vivo at 40 mg/kg came to 71.4%.
With `CCN(CC)CCCC(C)N1CCn2c(nc3ccc(Cl)cc32)S1(=O)=O` (stereo not shown) [Example 103, 7-chloro-3,4-dihydro-2H-2-(4-diethylamino-1-methylbutyl)-[1,2,5]-thiadiazino[5,6-a]benzimidazole 1,1-dioxide], it took a dose of 15 mg/kg to reach the 50% effect level (ED50) and the inhibition in vivo at 40 mg/kg was 72.3%.
On to `CCN1CCn2c(nc3cc(C(=O)c4ccccc4)ccc32)S1(=O)=O` [Example 115, 8-Benzoyl-3,4-dihydro-2H-2-ethyl-[1,2,5]-thiadiazino-[5,6-a]benzimidazole 1,1-dioxide], for which it took a dose of 38.9 mg/kg to reach the 50% effect level (ED50) and the inhibition in vivo at 40 mg/kg stood at 51.1%.
For `CCN1CCn2c(nc3ccc(C(=O)c4ccccc4)cc32)S1(=O)=O` [Example 116, 7-Benzoyl-3,4-dihydro-2H-2-ethyl-[1,2,5]-thiadiazino-[5,6-a]benzimidazole 1,1-dioxide], in that order: 39.4 mg/kg and 50.3%.
As for `O=[N+]([O-])c1ccc2c(c1)nc1n2CCN(CCCN2CCOCC2)S1(=O)=O` [Example 141, 3,4-Dihydro-2H-2-[3-(4-morpholinopropyl)]-8-nitro-[1,2,5]-thiadiazino[5,6-a]benzimidazole 1,1-dioxide], it took a dose of 16.3 mg/kg to reach the 50% effect level (ED50) and the inhibition in vivo at 40 mg/kg is 80.9%.
Regarding `CCN(CC)CCCC(C)N1CCn2c(nc3cc([N+](=O)[O-])ccc32)S1(=O)=O` (stereo not shown) [Example 143, 2H-2-(4-Diethylamino-1-methylbutyl)-3,4-dihydro-8-nitro-[1,2,5]-thiadiazino[5,6-a]benzimidazole 1,1-dioxide], the ED50 came out at 20.5 mg/kg and the inhibition in vivo at 40 mg/kg worked out at 99.3%.
On to `O=[N+]([O-])c1ccc2c(c1)nc1n2CCNS1(=O)=O` [Example 145, 3,4-Dihydro-2H-8-nitro-[1,2,5]-thiadiazino[5,6-a]-benzimidazole 1,1-dioxide], for which the ED50 was 19.8 mg/kg and the inhibition in vivo at 40 mg/kg amounted to 68.7%.
The matching figures for `O=[N+]([O-])c1ccc2nc3n(c2c1)CCNS3(=O)=O` [Example 146, 3,4-Dihydro-2H-7-nitro-[1,2,5]-thiadiazino[5,6-a]-benzimidazole 1,1-dioxide]: 20.3 mg/kg and 67.5%.
The matching figures for `O=[N+]([O-])c1ccc2c(c1)nc1n2CCN(C23CC4CC(CC(C4)C2)C3)S1(=O)=O` [Example 147, 2H-2-(1-Adamantyl)-3,4-dihydro-8-nitro-[1,2,5]-thiadiazino[5,6-a]benzimidazole 1,1-dioxide]: 44 mg/kg and 46.5%.
For `O=[N+]([O-])c1ccc2nc3n(c2c1)CCN(C12CC4CC(CC(C4)C1)C2)S3(=O)=O` [Example 148, 2H-2-(1-Adamantyl)-3,4-dihydro-7-nitro-[1,2,5]-thiadiazino[5,6-a]benzimidazole 1,1-dioxide], in that order: 46 mg/kg and 45.3%.

These data come from patent publication US4943570A, “Benzimidazolesulfonamides and imidazopyridinesulfonamides, and their application as drugs” (Laboratorios Del Dr. Esteve, S.A., priority 1986, dated 1990).
